Results: patent publication US20220213061A9, “HETEROCYCLIC COMPOUNDS FOR MODULATING NR2F6” (TES Pharma S.r.l., priority 2020, published 2022)
Where a name gives a salt, the structure may show the parent alone.

Biological target: T1, recombinant human NR2F6 protein (Homo sapiens, UniProt P10588)
T1 sequence (P10588 1-404): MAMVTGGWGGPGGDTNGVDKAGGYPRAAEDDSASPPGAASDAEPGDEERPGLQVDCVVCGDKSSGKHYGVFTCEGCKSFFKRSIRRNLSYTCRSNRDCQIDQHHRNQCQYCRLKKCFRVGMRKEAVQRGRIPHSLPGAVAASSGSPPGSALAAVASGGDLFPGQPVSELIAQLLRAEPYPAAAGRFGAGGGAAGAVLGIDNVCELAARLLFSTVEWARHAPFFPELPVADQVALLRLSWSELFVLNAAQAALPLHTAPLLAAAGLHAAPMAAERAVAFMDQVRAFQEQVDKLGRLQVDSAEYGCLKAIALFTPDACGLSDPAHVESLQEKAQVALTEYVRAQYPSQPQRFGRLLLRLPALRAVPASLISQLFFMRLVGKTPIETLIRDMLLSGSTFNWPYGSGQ
Experiment: Biochemical NR2F6 binding assay (EnSpire label-free)
Conditions: label-free binding to immobilized purified recombinant human NR2F6; ligands 1 nM to 100 uM, 1% DMSO
Protocol: Purified recombinant human NR2F6 protein was dissolved in immobilization buffer at pH 4.5 and then immobilized in EnSpire-LFB High-Sensitivity User-Activated Plates at the concentration of 50 μg/well plate and left in incubation for 16 h at 4° C. Wells with only immobilization buffer were used as negative control to check the protein coating efficiency. NR2F6 ligands were resuspended in DMSO at the concentration of 10 mM, then dispensed into a plate containing assay buffer at concentrations ranging from 1 nM to 100 uM using an HP-dispenser. DMSO was normalized at the 1% of volume of each well. The final readings were taken over a period of 30 minutes. The label-free responses were measured as shifts in reflected wavelength and are expressed in picometers (pm). Results were analyzed using the EnSpire label-free user interface software, and EC50 and graphs were generated using GraphPad PRISM software. In the tables below, A is <1 μM; B is 1 to 10 μM; C is 10 to 50 μM; and D is >50 μM.

In the case of `O=C(Nc1ccc(Nc2cccnc2)cc1)[C@H]1CNC[C@@H]1c1ccccc1` (racemic) [Compound I-107, (±)-trans-4-Phenyl-N-[4-(pyridin-3-ylamino)phenyl]pyrrolidine-3-carboxamide dihydrochloride], the EC50 is reported as > 50 µM.

For `Cc1ccc(O[C@H]2C[C@H](NC(=O)[C@@H]3CNC[C@H]3c3ccccc3)C2)cc1` (racemic) [Compound I-115, (±)-trans-N-[trans-3-(4-Methylphenoxy)cyclobutyl]-4-phenylpyrrolidine-3-carboxamide hydrochloride], the EC50 was 1 to 10 µM.

With `O=C(N[C@H]1C[C@H](Oc2ccc(F)nc2)C1)[C@@H]1CNC[C@H]1c1ccccc1` (racemic) [Compound I-116, (±)-trans-N-{trans-3-[(6-Fluoropyridin-3-yl)oxy]cyclobutyl}-4-phenylpyrrolidine-3-carboxamide dihydrochloride] the EC50 was 10 to 50 µM.

Work on `O=C(Nc1cccc2cnccc12)C1=C(c2ccccc2)CNC1` [Compound I-1, N-(Isoquinolin-5-yl)-4-phenyl-2,5-dihydro-1H-pyrrole-3-carboxamide] yielded an EC50 of 10 to 50 µM.

For `O=C(Nc1cccc2cnccc12)[C@H]1CNC[C@@H]1c1ccccc1` [Compound I-29, (3R,4S)—N-(Isoquinolin-5-yl)-4-phenylpyrrolidine-3-carboxamide], the EC50 was < 1 µM.

For `Cc1nccc2c(NC(=O)[C@H]3CNC[C@@H]3c3ccccc3)cccc12` [Compound I-30, (3R,4S)—N-(1-Methylisoquinolin-5-yl)-4-phenylpyrrolidine-3-carboxamide dihydrochloride], the EC50 was < 1 µM.

`O=C(NCc1ccncc1)[C@H]1CNC[C@@H]1c1ccccc1` [Compound I-31, (3R,4S)-4-Phenyl-N-(pyridin-4-ylmethyl)pyrrolidine-3-carboxamide dihydrochloride] gave an EC50 of 1 to 10 µM.

`O=C(Nc1csc2cnccc12)[C@H]1CNC[C@@H]1c1ccccc1` [Compound I-32, (3R,4S)-4-Phenyl-N-(thieno[2,3-c]pyridin-3-yl)pyrrolidine-3-carboxamide dihydrochloride] showed an EC50 of 1 to 10 µM.

`O=C(NCc1ccccc1)[C@H]1CNC[C@@H]1c1ccccc1` [Compound I-33, (3R,4S)—N-Benzyl-4-phenylpyrrolidine-3-carboxamide hydrochloride] gave an EC50 of 10 to 50 µM.

For `CN1CCC(CNC(=O)[C@H]2CNC[C@@H]2c2ccccc2)CC1` [Compound I-35, (3R,4S)—N-[(1-Methylpiperidin-4-yl)methyl]-4-phenylpyrrolidine-3-carboxamide dihydrochloride], the EC50 was > 50 µM.

With `O=C(N[C@H]1CC[C@H](O)CC1)[C@H]1CNC[C@@H]1c1ccccc1` [Compound I-36, (3R,4S)—N-[(1,4-trans)-4-Hydroxycyclohexyl]-4-phenylpyrrolidine-3-carboxamide hydrochloride] the EC50 was > 50 µM.

For `O=C(Nc1cccc(-c2ccccc2)c1)[C@H]1CNC[C@@H]1c1ccccc1` [Compound I-37, (3R,4S)—N-(Biphenyl-3-yl)-4-phenylpyrrolidine-3-carboxamide hydrochloride], the EC50 was 1 to 10 µM.

With `O=C(Nc1cc2ccccc2cn1)[C@H]1CNC[C@@H]1c1ccccc1` [Compound I-38, (3R,4S)—N-(Isoquinolin-3-yl)-4-phenylpyrrolidine-3-carboxamide dihydrochloride] the EC50 was 1 to 10 µM.

With `O=C(Nc1ccc(-c2cccnc2)cc1)[C@H]1CNC[C@@H]1c1ccccc1` [Compound I-39, (3R,4S)-4-Phenyl-N-[4-(pyridin-3-yl)phenyl]pyrrolidine-3-carboxamide dihydrochloride] the EC50 was > 50 µM.

With `O=C(Nc1cccc2cnccc12)[C@@H]1CNC[C@H]1c1ccccc1` [Compound I-40, (3S,4R)—N-(Isoquinolin-5-yl)-4-phenylpyrrolidine-3-carboxamide dihydrochloride] the EC50 was > 50 µM.

For `O=C(Nc1ccc(-c2cccnc2)cc1)[C@@H]1CNC[C@H]1c1ccccc1` [Compound I-41, (3S,4R)-4-Phenyl-N-[4-(pyridin-3-yl)phenyl]pyrrolidine-3-carboxamide dihydrochloride], the EC50 was 1 to 10 µM.

In the case of `O=C(Nc1cccc(-c2ccccc2)c1)[C@@H]1CNC[C@H]1c1ccccc1` [Compound I-42, (3S,4R)—N-(Biphenyl-3-yl)-4-phenylpyrrolidine-3-carboxamide hydrochloride], the EC50 is reported as 1 to 10 µM.

In the case of `O=C(Nc1cc2ccccc2cn1)[C@@H]1CNC[C@H]1c1ccccc1` [Compound I-43, (3S,4R)—N-(Isoquinolin-3-yl)-4-phenylpyrrolidine-3-carboxamide dihydrochloride], the EC50 is reported as 1 to 10 µM.

In the case of `O=C(Nc1cccc2cnccc12)[C@H]1CNC[C@@H]1c1cccs1` [Compound I-44, (3R,4R)—N-(Isoquinolin-5-yl)-4-(thiophen-2-yl)pyrrolidine-3-carboxamide dihydrochloride], the EC50 is reported as > 50 µM.

In the case of `O=C(Nc1cccc(-c2cccnc2)c1)c1c[nH]cc1-c1ccccc1` [Compound I-51, 4-Phenyl-N-[3-(pyridin-3-yl)phenyl]-1H-pyrrole-3-carboxamide], the EC50 is reported as > 50 µM.

With `O=C(Nc1cccc2cnccc12)[C@@H]1CNC[C@H]1c1cccs1` [Compound I-56, (3S,4S)—N-(Isoquinolin-5-yl)-4-(thiophen-2-yl)pyrrolidine-3-carboxamide] the EC50 was > 50 µM.

In the case of `CN(C(=O)[C@H]1CNC[C@@H]1c1ccccc1)c1cccc2cnccc12` [Compound I-57, (3R,4S)—N-(Isoquinolin-5-yl)-N-methyl-4-phenylpyrrolidine-3-carboxamide dihydrochloride], the EC50 is reported as > 50 µM.

`O=C(Nc1cccc2cnccc12)[C@H]1CNC[C@@H]1c1nccs1` [Compound I-58, (3R,4R)—N-(Isoquinolin-5-yl)-4-(1,3-thiazol-2-yl)pyrrolidine-3-carboxamide dihydrochloride] was tested, and the EC50 was > 50 µM.

For `O=C(Nc1cccc2cnccc12)[C@@H]1CNC[C@H]1c1nccs1` [Compound I-59, (3S,4S)—N-(Isoquinolin-5-yl)-4-(1,3-thiazol-2-yl)pyrrolidine-3-carboxamide dihydrochloride], the EC50 was > 50 µM.

With `O=C(Nc1cccc2cnccc12)[C@@H]1CNC[C@@H]1c1ccccc1` [Compound I-66, (3S,4S)—N-(Isoquinolin-5-yl)-4-phenylpyrrolidine-3-carboxamide dihydrochloride] the EC50 was > 50 µM.

`O=C(NCc1cccc2cnccc12)[C@H]1CNC[C@@H]1c1ccccc1` [Compound I-67, (3R,4S)—N-(Isoquinolin-5-ylmethyl)-4-phenylpyrrolidine-3-carboxamide dihydrochloride] was tested, and the EC50 was > 50 µM.

`O=C(Nc1cccc2ccccc12)[C@H]1CNC[C@@H]1c1ccccc1` [Compound I-74, (3R,4S)—N-(Naphthalen-1-yl)-4-phenylpyrrolidine-3-carboxamide hydrochloride] was tested, and the EC50 was 1 to 10 µM.

`O=C(Nc1cccc2ccccc12)[C@@H]1CNC[C@H]1c1ccccc1` [Compound I-75, (3S,4R)—N-(Naphthalen-1-yl)-4-phenylpyrrolidine-3-carboxamide hydrochloride] was tested, and the EC50 was 1 to 10 µM.

`O=C(Nc1cccc2cnccc12)N1CCC(c2ccccc2)C1` (stereo not drawn) [Compound I-79, N-(Isoquinolin-5-yl)-3-phenylpyrrolidine-1-carboxamide] was tested, and the EC50 was > 50 µM.

For `O=C(Nc1cccc2cnccc12)[C@H]1CNC[C@@H]1c1ccc(F)cc1` [Compound I-81, (3R,4S)-4-(4-Fluorophenyl)-N-(isoquinolin-5-yl)pyrrolidine-3-carboxamide dihydrochloride], the EC50 was > 50 µM.
